# Tests used:
# [1] = molecular target: T1, human TLR8 (Homo sapiens, UniProt Q9NR97); assay: NFκB-luciferase reporter assay in HEK293 cells transfected with human TLR8 (HEK293-TLR8); format: cell-based; settings: HEK293-TLR8, 10 μM IRM, 16 hours
# T1 construct: expressed in transfected cells; host or cells: HEK293 (ATCC CRL-1573), pIRES vector, G-418 selected
# T1 sequence (Q9NR97 27-1041): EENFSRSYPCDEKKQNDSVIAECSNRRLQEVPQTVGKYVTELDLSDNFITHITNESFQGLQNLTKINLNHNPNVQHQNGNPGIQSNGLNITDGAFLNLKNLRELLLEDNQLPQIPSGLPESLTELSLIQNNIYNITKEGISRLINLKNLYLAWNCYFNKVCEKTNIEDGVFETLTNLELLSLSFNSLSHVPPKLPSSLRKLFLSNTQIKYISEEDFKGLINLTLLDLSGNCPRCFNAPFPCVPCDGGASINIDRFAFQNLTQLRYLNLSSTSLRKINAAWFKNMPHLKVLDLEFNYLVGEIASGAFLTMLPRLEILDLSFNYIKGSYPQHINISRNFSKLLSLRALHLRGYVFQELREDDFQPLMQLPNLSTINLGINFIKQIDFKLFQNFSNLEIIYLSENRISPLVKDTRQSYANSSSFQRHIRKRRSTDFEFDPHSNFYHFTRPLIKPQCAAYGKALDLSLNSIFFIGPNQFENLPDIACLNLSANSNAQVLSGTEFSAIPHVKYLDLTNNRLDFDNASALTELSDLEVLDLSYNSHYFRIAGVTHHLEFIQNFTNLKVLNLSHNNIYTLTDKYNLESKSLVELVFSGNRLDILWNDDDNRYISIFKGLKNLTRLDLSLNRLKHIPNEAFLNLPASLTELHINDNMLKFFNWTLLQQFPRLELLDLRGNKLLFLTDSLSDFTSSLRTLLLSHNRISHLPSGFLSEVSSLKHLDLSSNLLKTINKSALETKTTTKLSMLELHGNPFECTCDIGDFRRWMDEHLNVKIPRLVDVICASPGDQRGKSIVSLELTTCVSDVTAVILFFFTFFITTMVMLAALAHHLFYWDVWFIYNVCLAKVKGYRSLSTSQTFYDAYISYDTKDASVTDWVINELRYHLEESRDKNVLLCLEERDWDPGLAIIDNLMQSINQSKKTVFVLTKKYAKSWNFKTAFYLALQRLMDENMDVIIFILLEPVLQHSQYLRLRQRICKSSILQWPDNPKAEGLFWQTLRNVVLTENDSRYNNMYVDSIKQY
# Protocol: (§1) A compound was identified as increasing cellular activity mediated through a given TLR if it induced at least a two-fold increase in NFκB-induced luciferase signal compared to the control.
# (§2) HEK293 medium was prepared from 90% Minimum Essential Medium (MEM) with 2 mM L-glutamine and Earle's Balanced Salt Solution (Invitrogen Corp., Rockville, Md.) adjusted to contain 1.5 g/L sodium bicarbonate, 0.1 mM non-essential amino acids, and 1.0 mM sodium pyruvate; 10% heat-inactivated fetal calf serum. HEK293 cells were cultured by incubating cells in HEK293 medium overnight at 37° C., 8% CO2.
# (§3) The cells were co-transfected with (1) pIRES (BD Biosciences Clontech, Palo Alto, Calif.) either (a) unmodified (HEK293-vector), (b) containing an expressible human TLR7 gene (HEK293-TLR7), or (c) containing an expressible human TLR8 gene (HEK293-TLR8), and (2) NFκB-luc reporter (Stratagene, La Jolla, Calif.) in a 10:1 ratio with Fugene 6 transfection reagent (Roche Diagnostics Corp., Indianapolis, Ind.) following the manufacturer's instructions.
# (§4) The cells were stimulated with 1 μL of IRM compounds at 1 mM in DMSO (final IRM concentration of 10 μM) or 1 μL DMSO as a control. The plates were then incubated an additional 16 hours at 37° C., 5% CO2. The luciferase signal was read using the LucLite kit (Packard Instrument Co., Meriden, Conn.). Luminescence was measured on an LMAX luminometer (Molecular Devices Corp., Sunnyvale, Calif.).
# [2] = molecular target: T2, TLR7 (Homo sapiens, UniProt Q9NYK1); assay: NFκB-luciferase reporter assay in HEK293 cells transfected with human TLR7 (HEK293-TLR7); format: cell-based; parameters: expressed in transfected cells; host or cells: HEK293 (ATCC CRL-1573), pIRES vector, G-418 selected; settings: HEK293-TLR7, 10 μM IRM, 16 hours
# T2 sequence (Q9NYK1 27-1049): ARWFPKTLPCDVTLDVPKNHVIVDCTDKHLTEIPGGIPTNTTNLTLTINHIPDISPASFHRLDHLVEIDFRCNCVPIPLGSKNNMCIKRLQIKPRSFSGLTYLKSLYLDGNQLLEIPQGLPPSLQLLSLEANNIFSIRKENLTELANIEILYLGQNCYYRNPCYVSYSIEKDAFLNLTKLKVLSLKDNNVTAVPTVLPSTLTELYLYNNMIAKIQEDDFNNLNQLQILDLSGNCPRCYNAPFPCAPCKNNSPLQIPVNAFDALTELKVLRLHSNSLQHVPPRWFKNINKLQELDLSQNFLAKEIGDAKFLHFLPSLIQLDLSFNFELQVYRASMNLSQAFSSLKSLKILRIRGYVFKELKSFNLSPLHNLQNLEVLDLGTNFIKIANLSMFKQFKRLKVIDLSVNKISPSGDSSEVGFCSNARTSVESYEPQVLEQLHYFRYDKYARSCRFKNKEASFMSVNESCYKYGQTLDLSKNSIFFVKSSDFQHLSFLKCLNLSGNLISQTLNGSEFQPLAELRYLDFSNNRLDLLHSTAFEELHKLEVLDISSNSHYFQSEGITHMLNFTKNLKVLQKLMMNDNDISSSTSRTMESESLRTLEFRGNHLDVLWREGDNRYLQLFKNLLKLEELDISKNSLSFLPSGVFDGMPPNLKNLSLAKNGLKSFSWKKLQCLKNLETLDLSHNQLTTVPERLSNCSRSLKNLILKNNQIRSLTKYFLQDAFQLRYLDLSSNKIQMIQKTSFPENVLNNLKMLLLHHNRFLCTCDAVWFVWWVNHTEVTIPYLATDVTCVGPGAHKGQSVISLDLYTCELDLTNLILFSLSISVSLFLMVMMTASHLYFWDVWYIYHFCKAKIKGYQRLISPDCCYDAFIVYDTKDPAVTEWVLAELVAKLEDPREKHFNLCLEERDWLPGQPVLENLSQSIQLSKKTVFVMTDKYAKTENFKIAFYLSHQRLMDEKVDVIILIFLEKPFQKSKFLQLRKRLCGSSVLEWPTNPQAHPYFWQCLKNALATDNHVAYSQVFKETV
# Protocol: as §1, §2, §3, §4
SMILES,TLR8: fold increase of NFκB-induced luciferase signal compared to a DMSO control [1] [fold increase],TLR7: fold increase of NFκB-induced luciferase signal compared to a DMSO control [2] [fold increase]
"Cc1nc2c(N)nc3ccccc3c2n1CCOCCCc1cccnc1 [IRM2, 2-methyl-1-[2-(3-pyridin-3-ylpropoxy)ethyl]-1H-imidazo[4,5-c]quinolin-4-amine]",0.91,4.16
"Cc1nc2c(N)nc3ccccc3c2n1CCOCc1ccccc1 [IRM4, 1-[2-(benzyloxy)ethyl]-2-methyl-1H-imidazo[4,5-c]quinolin-4-amine]",1.06,4.98
"COCCc1nc2c(N)nc3ccccc3c2n1CCCCCCCCNC(=O)Nc1ccccc1 [IRM5, N-{8-[4-amino-2-(2-methoxyethyl)-1H-imidazo[4,5-c]quinolin-1-yl]octyl}-N′-phenylurea]",0.94,3.38
"COCCc1nc2c(N)nc3ccccc3c2n1CCCNS(=O)(=O)c1ccc(C)cc1 [IRM7, N-{3-[4-amino-2-(2-methoxyethyl)-1H-imidazo[4,5-c]quinolin-1-yl]propyl}-4-methylbenzenesulfonamide]",0.86,6.22
"CCCCc1nc2c(N)nc3cccnc3c2n1CCNC(=O)C(N)CC(C)C (stereo not drawn) [IRM10, N^1-[2-(4-amino-2-butyl-1H-imidazo[4,5-c][1,5]naphthyridin-1-yl)ethyl]-2-amino-4-methylpentanamide]",9.24,0.64
"Nc1nc2ccccc2c2c1ncn2CCCCNC(=O)c1ccccc1Oc1ccccc1 [IRM11, N^1-[4-(4-amino-1H-imidazo[4,5-c]quinolin-1-yl)butyl]-2-phenoxybenzamide]",10.69,1.44
"CCCCc1nc2c(N)nc3ccccc3c2n1CCNS(=O)(=O)CCC [IRM12, N^1-[2-(4-amino-2-butyl-1H-imidazo[4,5-c]quinolin-1-yl)ethyl]-1-propanesulfonamide]",8.84,1.16
"CCc1nc2c(N)nc3ccccc3c2n1CCOCCNC(=O)Nc1ccccc1 [IRM13, N-{2-[2-(4-amino-2-ethyl-1H-imidazo[4,5-c]quinolin-1-yl)ethoxy]ethyl}-N′-phenylurea]",6.25,0.86
"CCOCc1nc2c(N)nc3ccccc3c2n1CCNC(=O)Nc1cccc(C#N)c1 [IRM15, N-{2-[4-amino-2-(ethoxymethyl)-1H-imidazo[4,5-c]quinolin-1-yl]ethyl}-N′-(3-cyanophenyl)urea]",5.52,0.92
"COCCc1nc2c(N)nc3ccccc3c2n1CC(C)(C)O [IRM17, 4-amino-α,α-dimethyl-2-methoxyethyl-1H-imidazo[4,5-c]quinoline-1-ethanol]",10.18,2.53
"CCCCc1nc2c(N)nc(C)c(C)c2n1CC(C)(C)O [IRM18, 4-amino-2-butyl-α,α,6,7-tetramethyl-1H-imidazo[4,5-c]pyridine-1-ethanol]",2.77,5.06
"CCc1nc2c(N)nc3ccccc3c2n1CCCCS(=O)(=O)c1cc(Cl)cc(Cl)c1 [IRM20, 1-{4-[(3,5-dichlorophenyl)sulfonyl]butyl}-2-ethyl-1H-imidazo[4,5-c]quinolin-4-amine]",6.04,4.22

# — US20040171086A1, “Selective modulation of TLR-mediated biological activity” (3M Innovative Properties Company, priority 2003, published 2004)
